Measured values taken from patent US20230346961A1, “GLP-1 AND GIP RECEPTOR CO-AGONISTS” (Novo Nordisk A/S, priority 2020, published 2023).
Starred links: 1 amine or outer side, 2 acyl side, 3 side chain; linkers in the order of their positions; H or OH if unused. Non-standard residues stand in square brackets, D forms with d. Residues, ends and D or L forms follow the SMILES beside them. Groups on a side chain read outwards from the residue. *: point of attachment. C20 diacid = O=C(O)CCCCCCCCCCCCCCCCCCC(=O)*; γGlu = O=C(O)[C@H](CCC(=O)[*:2])N[*:1]; εLys = N[C@@H](CCCCN[*:1])C(=O)[*:2]; Trx = NC[C@H]1CC[C@H](C(=O)O)CC1; Aib = CC(C)(N)C(=O)O

Columns and labels:
human GLP-1 receptor = human GLP-1 receptor (Homo sapiens, UniProt P43220); test: cell-based; conditions: hGLP-1R
Description: (§1) The in vitro functional potency is the measure of target receptor activation in a whole cell assay.
(§2) In vitro functional potency was determined by measuring the response of the target receptor in a reporter gene assay in individual cell lines. […] When the respective receptor is activated, it results in the production of cAMP, which in turn results in expression of the luciferase protein. When assay incubation is completed, luciferase substrate (luciferin) is added resulting in the enzymatic conversion of luciferin to oxyluciferin and producing bioluminescence. The luminescence is measured as the readout for the assay.
(§3) The cells lines used in these assays were BHK cells with BHKTS13 as a parent cell line. The cell lines were derived from a clone containing the CRE luciferase element and were established by further transfection with the respective receptor to obtain the relevant cell line.
(§4) The cells were cultured at 37° C. with 5% CO2 in Cell Culture Medium. They were aliquoted and stored in liquid nitrogen. The cells were kept in continuous culture and were seeded out the day before each assay.
(§5) GLP-1R and GcgR Cell Culture Medium consisted of DMEM medium with 10% FBS, 500 μg/mL G418, and 300 μg/mL hygromycin. GIPR Cell Culture Medium consisted of DMEM medium with 10% FBS, 400 μg/mL G418, and 300 μg/mL hygromycin. Assay Buffer consisted of DMEM w/o phenol red, 10 mM Hepes, 1×Glutamax, 1% ovalbumin, and 0.1% Pluronic F-68 with the addition of HSA at twice the final assay concentration.
(§6) • 1) Cells were plated at 5000 cells/well and incubated overnight in the assay plate. • 2) Cells were washed once in DPBS. • 3) Stocks of the test compounds and reference compounds in concentrations ranging from 100-300 μM were diluted 1:150 in Assay Buffer. Compounds were then diluted 1:10 in column 1 of a 96 deep well dilution plate and then carried across the row creating a 3.5 fold, 12 point dilution curve. • 4) Assay Buffer (50 μl aliquot) with or without HSA was added to each well in the assay plate. • 5) A 50 μl aliquot of compound or blank was transferred from the dilution plate to the assay plate containing the Assay Buffer with or without HSA. • 6) The assay plate was incubated for 3 h in a 5% CO2 incubator at 37° C. 7) The cells were washed once with DPBS. • 8) A 100 μl aliquot of DPBS was added to each well of the assay plate. • 9) A 100 μl aliquot of steadylite plus reagent (light sensitive) was added to each well of the assay plate. • 10) Each assay plate was covered with aluminum foil to protect it from light and shaken at 250 RPM for 30 min at room temperature. • 11) Each assay plate was read in a microtiter plate reader.
(§7) The data from the microtiter plate reader was first regressed in an Excel in order to calculate the x-axis, log scale concentrations based on the individual test compound's stock concentration and the dilutions of the assay. […] The software performs a non-linear regression (log(agonist) vs response). A minimum of two replicates was measured for each sample. The reported values are averages of the replicates.

mouse GIP receptor = target: T1, mouse GIP receptor (Mus musculus, UniProt Q0P543); test: cell-based
T1 sequence (Q0P543 19-460): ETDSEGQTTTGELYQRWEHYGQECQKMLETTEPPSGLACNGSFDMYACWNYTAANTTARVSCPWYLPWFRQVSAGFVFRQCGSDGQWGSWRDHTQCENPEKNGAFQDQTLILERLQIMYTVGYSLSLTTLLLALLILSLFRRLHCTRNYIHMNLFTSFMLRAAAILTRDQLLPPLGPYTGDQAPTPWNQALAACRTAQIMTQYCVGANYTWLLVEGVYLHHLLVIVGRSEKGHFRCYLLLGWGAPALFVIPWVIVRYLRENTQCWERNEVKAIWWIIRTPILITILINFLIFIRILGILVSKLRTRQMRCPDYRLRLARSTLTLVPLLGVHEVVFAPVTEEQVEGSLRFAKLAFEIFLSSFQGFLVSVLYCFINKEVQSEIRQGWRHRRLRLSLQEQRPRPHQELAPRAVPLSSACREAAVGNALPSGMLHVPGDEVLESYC
Description: as §1, §2, §3, §4, §5, §6, §7

human glucagon receptor = human glucagon receptor (Homo sapiens, UniProt P47871); test: cell-based
mouse GLP-1 receptor = target: T2, mouse GLP-1 receptor (Mus musculus, UniProt O35659)
T2 sequence (O35659 22-463): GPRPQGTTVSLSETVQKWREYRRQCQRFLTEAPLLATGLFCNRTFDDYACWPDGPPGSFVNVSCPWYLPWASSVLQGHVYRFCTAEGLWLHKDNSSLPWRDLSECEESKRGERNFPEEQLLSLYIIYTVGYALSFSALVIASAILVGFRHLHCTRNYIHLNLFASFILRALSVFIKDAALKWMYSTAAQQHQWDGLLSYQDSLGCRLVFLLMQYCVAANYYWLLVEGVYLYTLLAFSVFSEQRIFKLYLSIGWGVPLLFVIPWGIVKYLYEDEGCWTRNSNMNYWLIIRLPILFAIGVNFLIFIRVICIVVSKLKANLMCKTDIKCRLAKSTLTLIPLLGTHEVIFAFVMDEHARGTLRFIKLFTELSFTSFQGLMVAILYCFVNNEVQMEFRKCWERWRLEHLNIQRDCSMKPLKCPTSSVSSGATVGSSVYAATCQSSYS
Description: as §1, §2, §3, §4, §5, §6, §7

Sequence of human GLP-1 receptor (P43220 24-463): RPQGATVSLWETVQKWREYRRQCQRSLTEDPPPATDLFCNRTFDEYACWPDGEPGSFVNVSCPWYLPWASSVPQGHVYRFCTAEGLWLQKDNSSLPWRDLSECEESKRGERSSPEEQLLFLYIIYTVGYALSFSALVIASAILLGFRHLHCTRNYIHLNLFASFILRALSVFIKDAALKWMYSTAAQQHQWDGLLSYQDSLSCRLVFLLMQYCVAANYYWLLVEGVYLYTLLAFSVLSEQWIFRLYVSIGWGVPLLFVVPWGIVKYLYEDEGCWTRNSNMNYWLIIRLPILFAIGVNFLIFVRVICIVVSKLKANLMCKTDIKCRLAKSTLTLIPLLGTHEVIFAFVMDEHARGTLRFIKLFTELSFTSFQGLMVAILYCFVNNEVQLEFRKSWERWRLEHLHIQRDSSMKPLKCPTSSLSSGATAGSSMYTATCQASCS
Sequence of human glucagon receptor (P47871 26-477): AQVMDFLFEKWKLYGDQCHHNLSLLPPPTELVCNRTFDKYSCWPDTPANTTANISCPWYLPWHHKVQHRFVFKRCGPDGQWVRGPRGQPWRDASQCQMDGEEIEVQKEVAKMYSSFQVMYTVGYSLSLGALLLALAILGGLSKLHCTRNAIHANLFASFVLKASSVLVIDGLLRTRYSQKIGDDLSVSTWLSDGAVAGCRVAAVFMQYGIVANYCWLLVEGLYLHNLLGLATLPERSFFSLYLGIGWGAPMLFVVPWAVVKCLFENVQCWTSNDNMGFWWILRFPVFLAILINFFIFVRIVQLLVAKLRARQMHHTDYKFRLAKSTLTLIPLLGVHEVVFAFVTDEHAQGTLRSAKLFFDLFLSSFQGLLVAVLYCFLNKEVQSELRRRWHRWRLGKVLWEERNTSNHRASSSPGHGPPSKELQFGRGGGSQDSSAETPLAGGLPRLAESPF

SMILES | EC50 (human GLP-1 receptor; CRE Luc 0% HSA EC50, 0% HSA) [nM] | EC50 (human GLP-1 receptor; CRE Luc 1% HSA EC50, 1% HSA) [nM] | EC50 (mouse GIP receptor) [nM] | EC50 (human glucagon receptor) [nM] | EC50 (mouse GLP-1 receptor) [nM]
CC[C@H](C)[C@H](NC(=O)[C@H](CO)NC(=O)[C@H](Cc1ccc(O)cc1)NC(=O)[C@H](CC(=O)O)NC(=O)[C@H](CO)NC(=O)[C@@H](NC(=O)[C@H](Cc1ccccc1)NC(=O)[C@@H](NC(=O)CNC(=O)[C@H](CCC(=O)O)NC(=O)C(C)(C)NC(=O)[C@@H](N)Cc1ccc(O)cc1)[C@@H](C)O)[C@@H](C)O)C(=O)N[C@@H](Cc1ccc(O)cc1)C(=O)N[C@@H](CC(C)C)C(=O)N[C@@H](CC(=O)O)C(=O)N[C@@H](CCCCN)C(=O)N[C@@H](CCC(N)=O)C(=O)N[C@@H](C)C(=O)N[C@@H](C)C(=O)NC(C)(C)C(=O)N[C@@H](CCCCNC(=O)[C@@H](N)CCCCNC(=O)[C@@H](N)CCCCNC(=O)CC[C@H](NC(=O)CCCCCCCCCCCCCCCCCCC(=O)O)C(=O)O)C(=O)N[C@@H](Cc1ccccc1)C(=O)N[C@H](C(=O)N[C@@H](CC(N)=O)C(=O)N[C@@H](Cc1c[nH]c2ccccc12)C(=O)N[C@@H](CC(C)C)C(=O)N[C@@H](CC(C)C)C(=O)N[C@@H](C)C(=O)NCC(=O)NCC(=O)N1CCC[C@H]1C(=O)N[C@@H](CO)C(=O)N[C@@H](CO)C(=O)NCC(=O)N[C@@H](C)C(=O)N1CCC[C@H]1C(=O)N1CCC[C@H]1C(=O)N1CCC[C@H]1C(=O)N[C@@H](CO)C(N)=O)C(C)C [Compound 13] (H-Y[Aib]EGTFTSDYSIYLDKQAA[Aib]K([εLys-εLys-γGlu-C20 diacid])FVNWLLAGGPSSGAPPPS-NH2; N-terminus assumed) | 0.0124 | 0.103 | 0.057 | > 10 | 0.0054
CC[C@H](C)[C@H](NC(=O)[C@H](CO)NC(=O)[C@H](Cc1ccc(O)cc1)NC(=O)[C@H](CC(=O)O)NC(=O)[C@H](CO)NC(=O)[C@@H](NC(=O)[C@H](Cc1ccccc1)NC(=O)[C@@H](NC(=O)CNC(=O)[C@H](CCC(=O)O)NC(=O)C(C)(C)NC(=O)[C@@H](N)Cc1ccc(O)cc1)[C@@H](C)O)[C@@H](C)O)C(=O)N[C@@H](Cc1ccc(O)cc1)C(=O)N[C@@H](CC(C)C)C(=O)N[C@@H](CCC(=O)O)C(=O)N[C@@H](CCCCN)C(=O)N[C@@H](CCCCNC(=O)[C@@H](N)CCCCNC(=O)[C@@H](N)CCCCNC(=O)CC[C@H](NC(=O)[C@H]1CC[C@H](CNC(=O)CCCCCCCCCCCCCCCCCCC(=O)O)CC1)C(=O)O)C(=O)N[C@@H](C)C(=O)N[C@@H](C)C(=O)NC(C)(C)C(=O)N[C@@H](CCC(=O)O)C(=O)N[C@@H](Cc1ccccc1)C(=O)N[C@H](C(=O)N[C@@H](CCC(N)=O)C(=O)N[C@@H](Cc1c[nH]c2ccccc12)C(=O)N[C@@H](CC(C)C)C(=O)N[C@@H](CC(C)C)C(=O)N[C@@H](CCC(=O)O)C(=O)NCC(=O)NCC(=O)N1CCC[C@H]1C(=O)N[C@@H](CO)C(=O)N[C@@H](CO)C(=O)NCC(=O)N[C@@H](C)C(=O)N1CCC[C@H]1C(=O)N1CCC[C@H]1C(=O)N1CCC[C@H]1C(=O)N[C@@H](CO)C(N)=O)C(C)C [Compound 34] (H-Y[Aib]EGTFTSDYSIYLEKK([εLys-εLys-γGlu-Trx-C20 diacid])AA[Aib]EFVQWLLEGGPSSGAPPPS-NH2; N-terminus assumed) | 0.0032 | 0.379 | 0.0195 | – | 0.0018
